Measured values reported in patent publication US5374764A, “5-aminosulfonanilide compounds” (Taisho Pharmaceutical Co., Ltd., priority 1991, dated 1994).

Test system: adjuvant arthritis
Test: Test of action on adjuvant arthritis (therapy)
Format: in vivo, Lewis strain rats
Conditions: Rattus norvegicus, 96 h; oral, 1 mg/kg once a day for 4 days, in 5% gum arabic; Lewis rats with fully developed adjuvant arthritis; foot volume on day after final administration; read-out: Edema inhibition ratio (%)

SMILES | inhibition in vivo at 1 mg/kg [%]
CCC(=O)Nc1cc(NS(C)(=O)=O)c(OC2CCCCC2)cc1[N+](=O)[O-] [Test drug 4] | 48.5
CS(=O)(=O)Nc1ccc([N+](=O)[O-])cc1OC1CCCCC1 [compound 11] | 19.7
CCOC(=O)CCC(=O)Nc1cc(NS(C)(=O)=O)c(OC2CCCCC2)cc1[N+](=O)[O-] [Test drug 9] | 52.8
CCCOC(=O)C(=O)Nc1cc(NS(C)(=O)=O)c(OC2CCCCC2)cc1[N+](=O)[O-] [Test drug 7] | 37.2
CS(=O)(=O)Nc1cc(NC=O)c([N+](=O)[O-])cc1OC1CCCCC1 [Test drug 2] | 43.1
CCOC(=O)C(=O)Nc1cc(NS(C)(=O)=O)c(OC2CCCCC2)cc1[N+](=O)[O-] [Test drug 6] | 50.9
CCCCC(=O)Nc1cc(NS(C)(=O)=O)c(OC2CCCCC2)cc1[N+](=O)[O-] [Test drug 1, N-[2-cyclohexyloxy-4-nitro-5-(n-valerylamino)phenyl]methanesulfonamide] | 46.5
CC(=O)Nc1cc(NS(C)(=O)=O)c(OC2CCCCC2)cc1[N+](=O)[O-] [Test drug 3] | 45.7
CS(=O)(=O)Nc1cc(N)c([N+](=O)[O-])cc1OC1CCCCC1 [Test drug 10, N-(5-amino-2-cyclohexyloxy-4-nitrophenyl)methanesulfonamide] | 46.7
COC(=O)CC(=O)Nc1cc(NS(C)(=O)=O)c(OC2CCCCC2)cc1[N+](=O)[O-] [Test drug 8] | 38
CCCC(=O)Nc1cc(NS(C)(=O)=O)c(OC2CCCCC2)cc1[N+](=O)[O-] [Test drug 5, N-[5-(n-butyrylamino)-2-cyclohexyloxy-4-nitrophenyl)methanesulfonamide] | 44.2
